Reference: DBAASP
≈ marks a conversion by molar mass, not a printed value. Blank lines part the entries; values can stand above or below the molecule they belong to.

Key:
Assay in all cases: ≥ marks a high value that may be exact or a test limit, other limits are often not marked, values filed in µg/mL are converted to µM
[1] = test system: Pseudomonas aeruginosa LES400
[2] = test system: Enterococcus faecium mic80
Pseudomonas aeruginosa 9 = test system: Pseudomonas aeruginosa 9
[3] = test system: Pseudomonas aeruginosa PAO1 H103
[4] = test system: Escherichia coli ESBL 64771
[5] = test system: Staphylococcus aureus C623
[6] = test system: Klebsiella pneumoniae ESBL 61962
[7] = test system: Pseudomonas aeruginosa H1030
[8] = test system: Enterococcus faecalis W61950
[9] = test system: Enterococcus faecalis ATCC 29212
[10] = test system: Enterococcus faecium t62764
[11] = test system: Enterobacter cloacae 218R
[12] = test system: Escherichia coli ESBL 63103
[13] = test system: Pseudomonas aeruginosa H1027
[14] = test system: Stenotrophomonas maltophilia ATCC 13637
[15] = test system: Staphylococcus aureus ATCC 25923
[16] = test system: Pseudomonas aeruginosa 213
[17] = test system: Klebsiella pneumoniae ESBL 63575
[18] = test system: Pseudomonas aeruginosa 198
[19] = test system: Enterococcus faecalis f43559
[20] = test system: Candida albicans ATCC 90028
[21] = test system: Pseudomonas aeruginosa ATCC 27853
[22] = test system: Klebsiella pneumoniae KK3 9904
[23] = test system: Enterobacter cloacae NHTCC 53001
[24] = test system: Staphylococcus aureus NCTC 8325
[25] = test system: Escherichia coli ATCC 25922
[26] = test system: Lactobacillus acidophilus CGMCC 1.1854
[27] = test system: Lactococcus lactis AS1.1690
[28] = test system: Klebsiella pneumoniae subsp. pneumoniae CGMCC 1.176
Lactococcus lactis = test system: Lactococcus lactis
[29] = test system: Staphylococcus aureus AS1.72
[30] = test system: Streptococcus sanguinis CGMCC 1.2497
[31] = test system: Enterococcus faecium CGMCC 1.2334
Staphylococcus aureus = test system: Staphylococcus aureus
Escherichia coli AS1.349 = test system: Escherichia coli AS1.349
[32] = test system: Staphylococcus aureus ATCC 12600
[33] = test system: Escherichia coli ATCC 11775
[34] = test system: Streptococcus salivarius CGMCC 1.2498
Bacillus cereus = test system: Bacillus cereus
[35] = test system: Streptococcus mutans CGMCC 1.2500
[36] = test system: Pseudomonas aeruginosa CGMCC 1.860
[37] = test system: Enterobacter cloacae CGMCC 1.58
[38] = test system: Candida albicans CMCC 98001
Bacillus cereus AS1.126 = test system: Bacillus cereus AS1.126
[39] = test system: Enterococcus faecalis CGMCC 1.595
[40] = test system: Klebsiella aerogenes CGMCC 1.876
[41] = test system: Fusobacterium nucleatum CGMCC 1.2526
Escherichia coli = test system: Escherichia coli
[42] = test system: Vibrio parahaemolyticus Vp+1
[43] = test system: Photobacterium damselae subsp. piscicida Sp 9587
[44] = test system: Vibrio anguillarum NCIMB 829
[45] = test system: Bacillus subtilis IAM 1026
Salmonella typhimurium = test system: Salmonella typhimurium
[46] = test system: Staphylococcus aureus IAM 1011
[47] = test system: Aeromonas salmonicida NCIMB 1102
[48] = test system: Escherichia coli JCM 1649
[49] = test system: Shewanella putrefaciens IAM 1509

- MIC [1]: ≥ 186 µM
- MIC [2]: ≥ 93.6 µM
- MIC (Pseudomonas aeruginosa 9): ≥ 186 µM
- MIC [3]: ≥ 186 µM
- MIC [4]: ≥ 93.6 µM
- MIC [5]: ≥ 186 µM
- MIC [6]: ≥ 186 µM
- MIC [7]: ≥ 186 µM
- MIC [8]: ≥ 186 µM
- MIC [9]: > 186 µM
- MIC [10]: ≥ 93.6 µM
- MIC [11]: ≥ 186 µM
- MIC [12]: ≥ 186 µM
- MIC [13]: ≥ 93.6 µM
- MIC [14]: ≥ 46.8 µM
- MIC [15]: 186 µM (≈ 211 µg/mL)
- MIC [16]: ≥ 186 µM
- MIC [17]: ≥ 186 µM
- MIC [18]: ≥ 186 µM
- MIC [19]: ≥ 186 µM
Structure (SMILES): CC(C)[C@H](NC(=O)[C@H](CCCN=C(N)N)NC(=O)[C@H](CCCCN)NC(=O)[C@@H](NC(=O)[C@H](Cc1ccccc1)NC(=O)[C@H](CCCCN)NC(=O)[C@H](Cc1c[nH]c2ccccc12)NC(=O)[C@@H](NC(=O)[C@H](C)N)C(C)C)C(C)C)C(=O)O [AVWKFVKRV]

- MIC [20]: ≥ 100 µM
- MIC [21]: 6 µM (≈ 22.9 µg/mL)
- MIC [22]: 12 µM (≈ 45.8 µg/mL)
- MIC [23]: 6 µM (≈ 22.9 µg/mL)
- MIC [24]: 25 µM (≈ 95.4 µg/mL)
- MIC [25]: 3 µM (≈ 11.4 µg/mL)
Structure (SMILES): CC[C@H](C)[C@@H]1NC(=O)[C@H](CCCCN)NC(=O)[C@@H](NC(=O)[C@H](CCCCN)NC(=O)[C@H](C)NC(=O)[C@H](CCC(N)=O)NC(=O)[C@H](CC(=O)O)NC(=O)[C@H](CC(C)C)NC(=O)[C@H](CC(C)C)NC(=O)[C@H](CO)NC(=O)CNC(=O)CNC(=O)[C@@H](NC(=O)[C@H](CC(N)=O)NC(=O)[C@H](CCCCN)NC(=O)[C@H](Cc2ccccc2)NC(=O)[C@@H](NC(=O)[C@H](Cc2cnc[nH]2)NC(=O)[C@H](CCCCN)NC(=O)CNC(=O)[C@H](C)NC(=O)[C@@H](NC(=O)[C@H](CCCCN)NC(=O)[C@H](CC(C)C)NC(=O)[C@@H](NC(=O)CNC(=O)[C@H](CCCCN)NC(=O)[C@@H](NC(=O)[C@@H](NC(=O)[C@H](CO)NC(=O)[C@H](CCSC)NC(=O)[C@H](CC(C)C)NC(=O)CN)C(C)C)[C@@H](C)O)C(C)C)[C@@H](C)O)[C@@H](C)CC)C(C)C)CSSC[C@@H](C(=O)O)NC(=O)[C@H](CCC(N)=O)NC(=O)CNC(=O)[C@H](CO)NC1=O [GLMSVTKGVLKTAGKHIFKNVGGSLLDQAKCKISGQC]

- MIC [26]: ≥ 37.5 µM
- MIC [27]: ≥ 62.5 µM
- MIC [28]: ≥ 175 µM
- MIC (Lactococcus lactis): ≥ 41 µM
- MIC [29]: ≥ 62.5 µM
- MIC [30]: ≥ 37.5 µM
- MIC [31]: ≥ 125 µM
- MIC (Staphylococcus aureus): 41 µM (≈ 50 µg/mL)
- MIC (Escherichia coli AS1.349): ≥ 125 µM
- MIC [32]: ≥ 100 µM
- MIC [33]: ≥ 100 µM
- MIC [34]: ≥ 75 µM
- MIC (Bacillus cereus): ≥ 41 µM
- MIC [35]: ≥ 50 µM
- MIC [36]: ≥ 125 µM
- MIC [37]: ≥ 250 µM
- MIC [38]: ≥ 50 µM
- MIC (Bacillus cereus AS1.126): ≥ 62.5 µM
- MIC [39]: ≥ 125 µM
- MIC [40]: ≥ 250 µM
- MIC [41]: ≥ 75 µM
- MIC (Escherichia coli): > 100 µM
Structure (SMILES): CC[C@H](C)[C@H](N)C(=O)N[C@@H](CC(C)C)C(=O)N1CCC[C@H]1C(=O)N[C@H](C(=O)N[C@@H](CC(C)C)C(=O)N[C@@H](CO)C(=O)N[C@@H](CC(C)C)C(=O)N[C@H](C(=O)NCC(=O)NCC(=O)N[C@@H](CC(C)C)C(=O)N[C@@H](CC(C)C)C(N)=O)[C@@H](C)CC)[C@@H](C)CC [ILPILSLIGGLL]

- MIC [43]: 4.48 µM (≈ 12.5 µg/mL)
- MIC [44]: 17.9 µM (≈ 50 µg/mL)
- MIC [45]: 8.96 µM (≈ 25 µg/mL)
- MIC (Salmonella typhimurium): 17.9 µM (≈ 50 µg/mL)
- MIC [46]: 2.24 µM (≈ 6.25 µg/mL)
- MIC [47]: 17.9 µM (≈ 50 µg/mL)
- MIC [48]: 17.9 µM (≈ 50 µg/mL)
- MIC [49]: 4.48 µM (≈ 12.5 µg/mL)
Structure (SMILES): CC[C@H](C)[C@H](NC(=O)[C@H](CC(N)=O)NC(=O)[C@H](CO)NC(=O)[C@H](CC(C)C)NC(=O)[C@H](C)NC(=O)CNC(=O)[C@H](Cc1ccccc1)NC(=O)[C@H](CC(C)C)NC(=O)[C@H](CO)NC(=O)[C@@H]1CCCN1C(=O)[C@@H](NC(=O)[C@H](CC(C)C)NC(=O)[C@H](CCCCN)NC(=O)[C@@H](NC(=O)[C@H](CC(C)C)NC(=O)[C@H](Cc1ccccc1)NC(=O)CNC(=O)[C@H](Cc1ccccc1)NC(=O)[C@@H](N)CC(C)C)[C@@H](C)CC)[C@@H](C)CC)C(=O)NCC(=O)N[C@@H](CCCN=C(N)N)C(=O)N[C@@H](CC(N)=O)C(=O)N[C@@H](CCCN=C(N)N)C(=O)N[C@@H](CC(N)=O)C(=O)N[C@@H](CCC(N)=O)C(=O)O [LFGFLIKLIPSLFGALSNIGRNRNQ]
- MIC [42]: 8.96 µM (≈ 25 µg/mL)
